Measurements published in patent US7964556B1, “Antimicrobial peptides and use thereof” (Toagosei Co., Ltd, priority 2004, dated 2011).
Where two headings read alike, the source gives them in different places. Where a SMILES comes first, the peptide text is derived from it.

Columns and labels:
[1] = tested on: Staphylococcus aureus; type: cell-based; conditions: for antimicrobial activities against gram-positive bacteria (S. aureus), in words: summary of Table 2
Method: (§1) Regarding the antimicrobial peptide in samples 1 to 14 and the comparative sample 1, the antimicrobial activities (minimum inhibitory concentration: MIC) with respect to gram-negative bacteria (Escherichia coli) and gram-positive bacteria (Staphylococcus aureus) were determined, as described below, by a liquid medium dilution technique using a 96-well microplate. First, a drug (synthesized peptide) solution having a concentration of 40 times of the highest test concentration was prepared using sterile distilled water, and thereafter liquid-bouillon mediums (“NUTRIENT BROTH Dehydrated” manufactured by DIFCO) having peptide concentrations of 200, 100, 50, 25, 12.5, 6.25, 3.13, 1.56 and 0.78 μM were produced respectively. The produced liquid-bouillon mediums including the peptide of each concentration were then fed to the 96-well microplate at 100 μL a time.
(§2) At the same time, test bacteria cultured for 18 hours at 37° C. on an agar plate (“Muller Hinton Agar” manufactured by DIFCO) were gathered by scratching with a loop, and then suspended in a sterilized physiological saline. Bacterial suspension 5 μL prepared at an equivalent of 2×10^7 cells/mL was respectively inoculated (number of bacteria to be tested: approximately 1×10^6 cells/mL) onto the above-described liquid-bouillon mediums including the peptide of each concentration and fed to each well of the above-described microplate. After inoculation, the microplate was then incubated in an incubator at 37° C., and the presence of bacteria was evaluated based on the turbidity 24 hours later. The minimum drug concentration (peptide concentration), in which an increased in turbidity caused by bacteria was not detected at the time of measurement, was defined as MIC (minimum inhibitory concentration) (unit: μM) in the present embodiment.

[2] = tested on: Escherichia coli; type: cell-based
Method: as §1, §2

[3] = liquid-bouillon medium (Nutrient Broth), 37° C., turbidity after 24 hours

| SMILES | Antimicrobial Activities (MIC) S. aureus [1, 3] | antimicrobial activities against gram-positive bacteria (S. aureus), in words [1] | Antimicrobial Activities (MIC) E. coli [2, 3] | antimicrobial activities against E. coli, in words ([2]; summary of Table 2) | Antimicrobial Activities (MIC) S. aureus ([1]; 24 h) | Antimicrobial Activities (MIC) E. coli ([2]; 24 h) |
| --- | --- | --- | --- | --- | --- | --- |
| CC(C)C[C@H](NC(=O)[C@H](CCCNC(=N)N)NC(=O)[C@H](CCC(=O)O)NC(=O)[C@H](CC(C)C)NC(=O)[C@@H]1CCCN1C(=O)[C@@H]1CCCN1C(=O)[C@@H](N)CC(C)C)C(=O)N[C@H](C(=O)N[C@@H](CC(C)C)C(=O)N[C@@H](CC(=O)O)C(N)=O)[C@@H](C)O [Comparative Sample 1, LPPLERLTLD, reference compound] (H-LPPLERLTLD-NH2) | >200 µM | no antimicrobial activity | >200 µM | no antimicrobial activity |  |  |
| CC(C)[C@H](NC(=O)[C@H](C)NC(=O)[C@@H](NC(=O)[C@H](CCCCN)NC(=O)[C@@H](N)CCCCN)C(C)C)C(=O)N[C@H](C(=O)N[C@@H](CCCNC(=N)N)C(N)=O)C(C)C [Sample 1, KKVAVVR] (H-KKVAVVR-NH2) |  |  |  |  | 50 µM | 200 µM |
| CC[C@H](C)[C@H](NC(=O)[C@H](CCC(N)=O)NC(=O)[C@@H](NC(=O)[C@@H](N)CCCCN)C(C)C)C(=O)N[C@H](C(=O)N[C@@H](CC(N)=O)C(=O)N[C@@H](CCCCN)C(=O)N[C@@H](CCCCN)C(N)=O)[C@@H](C)CC [Sample 2, KVQIINKK] (H-KVQIINKK-NH2; N-terminus assumed) |  |  |  |  | 200 µM | 200 µM |
| CC[C@H](C)[C@H](NC(=O)[C@H](CCC(N)=O)NC(=O)[C@@H](NC(=O)[C@H](CCCNC(=N)N)NC(=O)[C@H](CCC(N)=O)NC(=O)[C@H](CC(C)C)NC(=O)[C@H](CCCCN)NC(=O)[C@H](CCCNC(=N)N)NC(=O)[C@H](CCCCN)NC(=O)[C@@H](N)CC(C)C)C(C)C)C(=O)N[C@H](C(=O)N[C@@H](Cc1ccc(O)cc1)C(=O)N[C@@H](CCCCN)C(N)=O)C(C)C [Sample 3, LKRKLQRVQIVYK] (H-LKRKLQRVQIVYK-NH2) |  | particularly high antimicrobial activities |  |  | 3.13 µM | 6.25 µM |
| CC[C@H](C)[C@H](NC(=O)[C@H](CCC(N)=O)NC(=O)[C@@H](NC(=O)[C@H](CCCNC(=N)N)NC(=O)[C@H](CCC(N)=O)NC(=O)[C@H](CC(C)C)NC(=O)[C@H](CCCCN)NC(=O)[C@H](CCCNC(=N)N)NC(=O)[C@H](CCCCN)NC(=O)[C@@H](N)CC(C)C)C(C)C)C(=O)N[C@H](C(=O)N[C@@H](CC(N)=O)C(=O)N[C@@H](CCCCN)C(N)=O)[C@@H](C)CC [Sample 4, LKRKLQRVQIINK] (H-LKRKLQRVQIINK-NH2) |  | particularly high antimicrobial activities |  |  | 6.25 µM | 100 µM |
| CC(C)[C@H](NC(=O)[C@H](C)NC(=O)[C@@H](NC(=O)[C@H](CCCCN)NC(=O)[C@H](CCCCN)NC(=O)[C@H](CCCNC(=N)N)NC(=O)[C@@H](NC(=O)[C@@H](NC(=O)[C@H](C)NC(=O)[C@@H](NC(=O)[C@H](CCCCN)NC(=O)[C@@H](N)CCCCN)C(C)C)C(C)C)C(C)C)C(C)C)C(=O)N[C@H](C(=O)N[C@@H](CCCNC(=N)N)C(N)=O)C(C)C [Sample 5, KKVAVVRKKVAVVR] (H-KKVAVVRKKVAVVR-NH2) |  | particularly high antimicrobial activities |  |  | 12.5 µM | 100 µM |
| CC[C@H](C)[C@H](NC(=O)[C@H](CCC(N)=O)NC(=O)[C@@H](NC(=O)[C@H](CCCCN)NC(=O)[C@H](CCCCN)NC(=O)[C@H](CCCCN)NC(=O)[C@H](CC(N)=O)NC(=O)[C@@H](NC(=O)[C@@H](NC(=O)[C@H](CCC(N)=O)NC(=O)[C@@H](NC(=O)[C@@H](N)CCCCN)C(C)C)[C@@H](C)CC)[C@@H](C)CC)C(C)C)C(=O)N[C@H](C(=O)N[C@@H](CC(N)=O)C(=O)N[C@@H](CCCCN)C(=O)N[C@@H](CCCCN)C(N)=O)[C@@H](C)CC [Sample 6, KVQIINKKKVQIINKK] (H-KVQIINKKKVQIINKK-NH2) |  | particularly high antimicrobial activities |  |  | 1.56 µM | 6.25 µM |
| CC(C)[C@H](NC(=O)[C@H](C)NC(=O)[C@@H](NC(=O)[C@H](CCCCN)NC(=O)[C@H](CCCCN)NC(=O)[C@@H](NC(=O)[C@H](CCCCN)NC(=O)[C@H](CCCNC(=N)N)NC(=O)[C@H](CCCCN)NC(=O)[C@H](CCCCN)NC(=O)[C@H](CCCCN)NC(=O)[C@@H](N)CCCNC(=N)N)C(C)C)C(C)C)C(=O)N[C@H](C(=O)N[C@@H](CCCNC(=N)N)C(N)=O)C(C)C [Sample 7, RKKKRKVKKVAVVR] (H-RKKKRKVKKVAVVR-NH2) |  | particularly high antimicrobial activities |  |  | 3.13 µM | 6.25 µM |
| CC(C)[C@H](NC(=O)[C@H](C)NC(=O)[C@@H](NC(=O)[C@H](CCCCN)NC(=O)[C@H](CCCCN)NC(=O)[C@@H](NC(=O)[C@H](CCCNC(=N)N)NC(=O)[C@@H](NC(=O)[C@@H](NC(=O)[C@H](C)NC(=O)[C@@H](NC(=O)[C@H](CCCCN)NC(=O)[C@@H](N)CCCCN)C(C)C)C(C)C)C(C)C)[C@@H](C)O)C(C)C)C(=O)N[C@H](C(=O)N[C@@H](CCCNC(=N)N)C(=O)N[C@H](C(N)=O)[C@@H](C)O)C(C)C [Sample 8, KKVAVVRTKKVAVVRT] (H-KKVAVVRTKKVAVVRT-NH2) |  | particularly high antimicrobial activities |  |  | 6.25 µM | 50 µM |
| CC[C@H](C)[C@H](NC(=O)[C@H](CCC(N)=O)NC(=O)[C@@H](NC(=O)[C@@H](N)CCCCN)C(C)C)C(=O)N[C@H](C(=O)N[C@@H](CC(N)=O)C(=O)N[C@@H](CCCCN)C(=O)N[C@@H](CCCCN)C(=O)N[C@@H](CC(C)C)C(=O)N[C@@H](CC(=O)O)C(=O)N[C@H](C(=O)N[C@@H](CO)C(=O)N[C@@H](CC(N)=O)C(=O)N[C@@H](CC(C)C)C(=O)N[C@@H](CCSC)C(=O)N[C@@H](Cc1c[nH]c2ccccc12)C(=O)N[C@@H](Cc1c[nH]c2ccccc12)C(=O)N[C@@H](CC(C)C)C(=O)N[C@@H](CC(C)C)C(N)=O)C(C)C)[C@@H](C)CC [Sample 11, KVQIINKKLDVSNLMWWLL] (H-KVQIINKKLDVSNLMWWLL-NH2) |  | particularly high antimicrobial activities |  |  | 12.5 µM | 25 µM |
| CC[C@H](C)[C@H](NC(=O)[C@H](CCC(N)=O)NC(=O)[C@@H](NC(=O)[C@@H](N)CCCCN)C(C)C)C(=O)N[C@H](C(=O)N[C@@H](CC(N)=O)C(=O)N[C@@H](CCCCN)C(=O)N[C@@H](CCCCN)C(=O)N[C@@H](CC(C)C)C(=O)N[C@@H](CCSC)C(=O)N[C@@H](Cc1c[nH]c2ccccc12)C(=O)N[C@@H](Cc1c[nH]c2ccccc12)C(=O)N[C@@H](CC(C)C)C(=O)N[C@@H](CC(C)C)C(N)=O)[C@@H](C)CC [Sample 12, KVQIINKKLMWWLL] (H-KVQIINKKLMWWLL-NH2) |  | particularly high antimicrobial activities |  |  | 3.13 µM | 12.5 µM |
